Laboratory results published in US20240238242A1, “EGCG buccal tablet and use thereof” (priority 2023, published 2024).
“And” between values parts separate entries of the source, which are not always exact repeats. Equal values may be shown once. Read-outs that look alike come from different tables or passages of the source.

Test system: Influenza A H3N2 virus (H3N2)
Type: cell-based
Details: for inactivation efficiency against the virus: single experiment

O=C(O[C@@H]1Cc2c(O)cc(O)cc2O[C@@H]1c1cc(O)c(O)c(O)c1)c1cc(O)c(O)c(O)c1 [EGCG, Epigallocatechin gallate]
CPE test, virus replication in cell wells (wells 1-10) (0.2 mM EGCG + H3N2 virus, 1 minute, first experiment, dilution factor 10^1): + | CPE test, virus replication in cell wells (wells 1-10) (0.2 mM EGCG + H3N2 virus, 1 minute, first experiment, dilution factor 10^2): + | CPE test, virus replication in cell wells (wells 1-10) (0.2 mM EGCG + H3N2 virus, 1 minute, first experiment, dilution factor 10^3): + | CPE test, virus replication in cell wells (wells 1-10) (0.2 mM EGCG + H3N2 virus, 1 minute, first experiment, dilution factor 10^4): + | CPE test, virus replication in cell wells (wells 1-10) (0.2 mM EGCG + H3N2 virus, 1 minute, first experiment, dilution factor 10^5): + and − | CPE test, virus replication in cell wells (wells 1-10) (0.2 mM EGCG + H3N2 virus, 1 minute, first experiment, dilution factor 10^6): − | CPE test, virus replication in cell wells (wells 1-10) (0.2 mM EGCG + H3N2 virus, 1 minute, first experiment, dilution factor 10^7): − | CPE test, virus replication in cell wells (wells 1-10) (0.2 mM EGCG + H3N2 virus, 1 minute, first experiment, dilution factor 10^8): − | CPE test, virus replication in cell wells (wells 1-10) (0.2 mM EGCG + H3N2 virus, 1 minute, second experiment, dilution factor 10^1): + | CPE test, virus replication in cell wells (wells 1-10) (0.2 mM EGCG + H3N2 virus, 1 minute, second experiment, dilution factor 10^2): + | CPE test, virus replication in cell wells (wells 1-10) (0.2 mM EGCG + H3N2 virus, 1 minute, second experiment, dilution factor 10^3): + | CPE test, virus replication in cell wells (wells 1-10) (0.2 mM EGCG + H3N2 virus, 1 minute, second experiment, dilution factor 10^4): + | CPE test, virus replication in cell wells (wells 1-10) (0.2 mM EGCG + H3N2 virus, 1 minute, second experiment, dilution factor 10^5): + and − | CPE test, virus replication in cell wells (wells 1-10) (0.2 mM EGCG + H3N2 virus, 1 minute, second experiment, dilution factor 10^6): − | CPE test, virus replication in cell wells (wells 1-10) (0.2 mM EGCG + H3N2 virus, 1 minute, second experiment, dilution factor 10^7): − | CPE test, virus replication in cell wells (wells 1-10) (0.2 mM EGCG + H3N2 virus, 1 minute, second experiment, dilution factor 10^8): − | CPE test, virus replication in cell wells 1-10 (0.2 mM EGCG + H3N2 virus, 1 minute, third experiment, dilution factor 10^1): + | CPE test, virus replication in cell wells 1-10 (0.2 mM EGCG + H3N2 virus, 1 minute, third experiment, dilution factor 10^2): + | CPE test, virus replication in cell wells 1-10 (0.2 mM EGCG + H3N2 virus, 1 minute, third experiment, dilution factor 10^3): + | CPE test, virus replication in cell wells 1-10 (0.2 mM EGCG + H3N2 virus, 1 minute, third experiment, dilution factor 10^4): + | CPE test, virus replication in cell wells 1-10 (0.2 mM EGCG + H3N2 virus, 1 minute, third experiment, dilution factor 10^5): + and − | CPE test, virus replication in cell wells 1-10 (0.2 mM EGCG + H3N2 virus, 1 minute, third experiment, dilution factor 10^6): − | CPE test, virus replication in cell wells 1-10 (0.2 mM EGCG + H3N2 virus, 1 minute, third experiment, dilution factor 10^7): − | CPE test, virus replication in cell wells 1-10 (0.2 mM EGCG + H3N2 virus, 1 minute, third experiment, dilution factor 10^8): − | CPE test, virus replication in cell wells 1-10 (0.2 mM EGCG + H3N2 virus, 5 minute, first experiment, dilution factor 10^1): + | CPE test, virus replication in cell wells 1-10 (0.2 mM EGCG + H3N2 virus, 5 minute, first experiment, dilution factor 10^2): + | CPE test, virus replication in cell wells 1-10 (0.2 mM EGCG + H3N2 virus, 5 minute, first experiment, dilution factor 10^3): + | CPE test, virus replication in cell wells 1-10 (0.2 mM EGCG + H3N2 virus, 5 minute, first experiment, dilution factor 10^4): + | CPE test, virus replication in cell wells 1-10 (0.2 mM EGCG + H3N2 virus, 5 minute, first experiment, dilution factor 10^5): + and − | CPE test, virus replication in cell wells 1-10 (0.2 mM EGCG + H3N2 virus, 5 minute, first experiment, dilution factor 10^6): − | CPE test, virus replication in cell wells 1-10 (0.2 mM EGCG + H3N2 virus, 5 minute, first experiment, dilution factor 10^7): − | CPE test, virus replication in cell wells 1-10 (0.2 mM EGCG + H3N2 virus, 5 minute, first experiment, dilution factor 10^8): − | CPE test, virus replication in cell wells 1-10 (0.2 mM EGCG + H3N2 virus, 5 minute, second experiment, dilution factor 10^1): + | CPE test, virus replication in cell wells 1-10 (0.2 mM EGCG + H3N2 virus, 5 minute, second experiment, dilution factor 10^2): + | CPE test, virus replication in cell wells 1-10 (0.2 mM EGCG + H3N2 virus, 5 minute, second experiment, dilution factor 10^3): + | CPE test, virus replication in cell wells 1-10 (0.2 mM EGCG + H3N2 virus, 5 minute, second experiment, dilution factor 10^4): + | CPE test, virus replication in cell wells 1-10 (0.2 mM EGCG + H3N2 virus, 5 minute, second experiment, dilution factor 10^5): − and + | CPE test, virus replication in cell wells 1-10 (0.2 mM EGCG + H3N2 virus, 5 minute, second experiment, dilution factor 10^6): − | CPE test, virus replication in cell wells 1-10 (0.2 mM EGCG + H3N2 virus, 5 minute, second experiment, dilution factor 10^7): − | CPE test, virus replication in cell wells 1-10 (0.2 mM EGCG + H3N2 virus, 5 minute, second experiment, dilution factor 10^8): − | residual virus titer of EGCG+virus group (Karber method) (0.2 mM EGCG, H3N2 virus, 1 minute): 10^5 TCID50/50 μL | average inactivation efficiency against virus (0.2 mM EGCG, H3N2 virus, 1 minute, three experiments): 28.93% | inactivation efficiency against the virus (0.2 mM EGCG, H3N2 virus, 5 minutes): 84.15% | average inactivation efficiency against virus (0.2 mM EGCG, H3N2 virus, 5 minutes, two experiments): 76.27% | CPE test, virus replication in cell wells (wells 1-10) (1 mM EGCG + H3N2 virus, 1 minute, first experiment, dilution factor 10^2): + | CPE test, virus replication in cell wells (wells 1-10) (1 mM EGCG + H3N2 virus, 1 minute, first experiment, dilution factor 10^3): + | CPE test, virus replication in cell wells (wells 1-10) (1 mM EGCG + H3N2 virus, 1 minute, first experiment, dilution factor 10^4): + | CPE test, virus replication in cell wells (wells 1-10) (1 mM EGCG + H3N2 virus, 1 minute, first experiment, dilution factor 10^5): + and − | CPE test, virus replication in cell wells (wells 1-10) (1 mM EGCG + H3N2 virus, 1 minute, first experiment, dilution factor 10^6): − | CPE test, virus replication in cell wells (wells 1-10) (1 mM EGCG + H3N2 virus, 1 minute, first experiment, dilution factor 10^7): − | CPE test, virus replication in cell wells (wells 1-10) (1 mM EGCG + H3N2 virus, 1 minute, first experiment, dilution factor 10^8): − | CPE test, virus replication in cell wells (wells 1-10) (1 mM EGCG + H3N2 virus, 1 minute, second experiment, dilution factor 10^1): + | CPE test, virus replication in cell wells (wells 1-10) (1 mM EGCG + H3N2 virus, 1 minute, second experiment, dilution factor 10^2): + | CPE test, virus replication in cell wells (wells 1-10) (1 mM EGCG + H3N2 virus, 1 minute, second experiment, dilution factor 10^3): + | CPE test, virus replication in cell wells (wells 1-10) (1 mM EGCG + H3N2 virus, 1 minute, second experiment, dilution factor 10^4): + and − | CPE test, virus replication in cell wells (wells 1-10) (1 mM EGCG + H3N2 virus, 1 minute, second experiment, dilution factor 10^5): + and − | CPE test, virus replication in cell wells (wells 1-10) (1 mM EGCG + H3N2 virus, 1 minute, second experiment, dilution factor 10^6): − | CPE test, virus replication in cell wells (wells 1-10) (1 mM EGCG + H3N2 virus, 1 minute, second experiment, dilution factor 10^7): − | CPE test, virus replication in cell wells (wells 1-10) (1 mM EGCG + H3N2 virus, 1 minute, second experiment, dilution factor 10^8): − | CPE test, virus replication in cell wells 1-10 (1 mM EGCG + H3N2 virus, 1 minute, third experiment, dilution factor 10^2): + | CPE test, virus replication in cell wells 1-10 (1 mM EGCG + H3N2 virus, 1 minute, third experiment, dilution factor 10^3): + | CPE test, virus replication in cell wells 1-10 (1 mM EGCG + H3N2 virus, 1 minute, third experiment, dilution factor 10^4): + | CPE test, virus replication in cell wells 1-10 (1 mM EGCG + H3N2 virus, 1 minute, third experiment, dilution factor 10^5): − and + | CPE test, virus replication in cell wells 1-10 (1 mM EGCG + H3N2 virus, 1 minute, third experiment, dilution factor 10^6): − | CPE test, virus replication in cell wells 1-10 (1 mM EGCG + H3N2 virus, 1 minute, third experiment, dilution factor 10^7): − | CPE test, virus replication in cell wells 1-10 (1 mM EGCG + H3N2 virus, 1 minute, third experiment, dilution factor 10^8): − | CPE test, virus replication in cell wells 1-10 (1 mM EGCG + H3N2 virus, 5 minute, first experiment, dilution factor 10^3): − and + | CPE test, virus replication in cell wells 1-10 (1 mM EGCG + H3N2 virus, 5 minute, first experiment, dilution factor 10^4): + and − | CPE test, virus replication in cell wells 1-10 (1 mM EGCG + H3N2 virus, 5 minute, first experiment, dilution factor 10^5): − | CPE test, virus replication in cell wells 1-10 (1 mM EGCG + H3N2 virus, 5 minute, first experiment, dilution factor 10^6): − | CPE test, virus replication in cell wells 1-10 (1 mM EGCG + H3N2 virus, 5 minute, first experiment, dilution factor 10^7): − | CPE test, virus replication in cell wells 1-10 (1 mM EGCG + H3N2 virus, 5 minute, first experiment, dilution factor 10^8): − | CPE test, virus replication in cell wells 1-10 (1 mM EGCG + H3N2 virus, 5 minute, second experiment, dilution factor 10^3): − | CPE test, virus replication in cell wells 1-10 (1 mM EGCG + H3N2 virus, 5 minute, second experiment, dilution factor 10^4): − | CPE test, virus replication in cell wells 1-10 (1 mM EGCG + H3N2 virus, 5 minute, second experiment, dilution factor 10^5): − | CPE test, virus replication in cell wells 1-10 (1 mM EGCG + H3N2 virus, 5 minute, second experiment, dilution factor 10^6): − | CPE test, virus replication in cell wells 1-10 (1 mM EGCG + H3N2 virus, 5 minute, second experiment, dilution factor 10^7): − | CPE test, virus replication in cell wells 1-10 (1 mM EGCG + H3N2 virus, 5 minute, second experiment, dilution factor 10^8): − | average inactivation efficiency against virus (1 mM EGCG, H3N2 virus, 1 minute, three experiments): 61.78% | inactivation efficiency against the virus (1 mM EGCG, H3N2 virus, 5 minutes): 99.50% and 99.87% | average inactivation efficiency against virus (1 mM EGCG, H3N2 virus, 5 minutes, two experiments): 99.69% | CPE test, virus replication in cell wells (wells 1-10) (5 mM EGCG + H3N2 virus, 1 minute, first experiment, dilution factor 10^4): − | CPE test, virus replication in cell wells (wells 1-10) (5 mM EGCG + H3N2 virus, 1 minute, first experiment, dilution factor 10^5): − | CPE test, virus replication in cell wells (wells 1-10) (5 mM EGCG + H3N2 virus, 1 minute, first experiment, dilution factor 10^6): − | CPE test, virus replication in cell wells (wells 1-10) (5 mM EGCG + H3N2 virus, 1 minute, first experiment, dilution factor 10^7): − | CPE test, virus replication in cell wells (wells 1-10) (5 mM EGCG + H3N2 virus, 1 minute, first experiment, dilution factor 10^8): − | CPE test, virus replication in cell wells (wells 1-10) (5 mM EGCG + H3N2 virus, 1 minute, second experiment, dilution factor 10^3): + | CPE test, virus replication in cell wells (wells 1-10) (5 mM EGCG + H3N2 virus, 1 minute, second experiment, dilution factor 10^4): − | CPE test, virus replication in cell wells (wells 1-10) (5 mM EGCG + H3N2 virus, 1 minute, second experiment, dilution factor 10^5): − | CPE test, virus replication in cell wells (wells 1-10) (5 mM EGCG + H3N2 virus, 1 minute, second experiment, dilution factor 10^6): −
